Here are results for 2 substances from patent US20110104121A1, “Female Reproductive Tract and Anal Prophylaxes” (priority 2008, published 2011).

Series [1] has as its system uterine epithelial cells (UTEC). The experiment in a line: CCL20/MIP3α production by uterine (endometrium) epithelial cells on TLR agonist treatment. Type of series: cell-based, human. The source says:
(§1) Materials and Methods. Source of Tissues Human uterine and Fallopian tube tissues were obtained from women undergoing hysterectomy. Tissues used in this study were collected from patients with benign conditions such as fibroids distal from the site of pathology. The sections were examined by a pathologist and proclaimed to be free of pathological lesions. A total of nine different patients were used to obtain uterine epithelial cells and a total of seven patients were used to obtain Fallopian tube epithelial cells.
(§2) Epithelial cells were isolated according to known methods (Fahey, et al. (1999) supra; Fahey, et al. (1998) supra) as described herein.
(§3) To establish a cell culture system of polarized human uterine epithelial cells (UTEC) and Fallopian tube epithelial cells (FTEC) with both apical and basolateral compartments, primary human UTEC and FTEC were cultured in Human Extracellular Matrix (Becton Dickenson, Franklin Lakes, N.J., USA)-coated Falcon cell culture inserts in 24-well culture plates (Fisher Scientific, Pittsburgh, Pa., USA). For these experiments, apical and basolateral compartments contained 300 and 850 μL of complete medium, respectively. The medium was changed every 2 days. […]
(§4) Concentrations of CCL20/MIP3α in the apical and basolateral supernatants from human primary UTEC and FTEC were determined with an ELISA Duoset kit (R&D Systems, Minneapolis, Minn., USA) according to the manufacturer's protocol. Amounts of CCL20/MIP3α were quantified based on a standard curve after OD measurements at 450 nm on an ELISA reader (Dynex, Chantilly, Va., USA).
(§5) Real-time RT-PCR was carried with a two-step protocol as described herein. […] As indicated herein, the software calculates the threshold cycle (Ct) for each reaction which was used to quantify the amount of starting template in the reaction.

The test system of series [2] is Fallopian tube epithelial cells (FTEC). The experiment in a line: CCL20/MIP3α production by Fallopian tube epithelial cells on Poly(I:C) treatment. In kind it is cell-based, human.
Description: as §1, §2, §3, §4, §5

The test system of the next series is uterine epithelial cells. The experiment in a line: Trappin-2/Elafin production by uterine epithelial cells on Poly(I:C) stimulation. The note with it: 24 hour conditioned media, ELISA. Type of series: cell-based, human. The protocol:
(§6) Materials & Methods. A total of 11 different patients were used to obtain epithelial cells from the uterus, Fallopian tube, endocervix and ectocervix. Epithelial cells were isolated according to known methods (Fahey, et al. (1999) Am. J. Reprod. Immunol. 42(1):49-57; Fahey et al. (1998) Immunol. Invest. 27(3):167-80). Briefly, tissues were rinsed with 1×PBS and minced into 1-2 mm fragments prior to subjecting them to enzymatic digestion for 2 hours at 37° C. The enzyme mixture contained 3.4 mg/ml pancreatin (Invitrogen Life Technologies, Carlsbad, Calif.), 0.1 mg/ml hyaluronidase (Worthington Biochemical, Lakewood, N.J.), 1.6 mg/ml collagenase (Worthington Biochemical), and 2 mg/ml D-glucose, in 1×HBSS (Invitrogen Life Technologies). […] Epithelial cell sheets retained on the filter were recovered by rinsing and backwashing, centrifuged at 500×g for 10 minutes and analyzed for cell number and viability. […]
(§7) Concentrations of Trappin-2/Elafin in the apical and basolateral supernatants from primary FRT epithelial cells and CVL from HIV(+) and (−) women were determined with an ELISA Duoset kit (R&D Systems, Minneapolis, Minn., USA) according to the manufacturer's protocol. […] Amounts of Trappin-2/Elafin were measured based on a standard curve after OD measurements at 450 nm on an ELISA reader (Dynex, Chantilly, Va., USA). […]
For orientation: An ELISA detects its analyte on a solid surface through an enzyme-linked reagent.

In series [3] the test system is Fallopian tube, endocervix, and ectocervix epithelial cells. The experiment in a line: Trappin-2/Elafin production by Fallopian tube, endocervix and ectocervix epithelial cells on Poly(I:C) stimulation. Type of series: cell-based, human. The note with it: 4-6 patients per compartment. The protocol:
as §6, §7

The test system of another series is HIV-1 R5/M-tropic BaL. In words: TZM-bl infectivity assay, HIV-1 BaL. Type of series: cell-based. How it is done:
(§8) The TZM indicator cell line is a HeLa cell derivative that expresses high levels of CD4, CCR5 and CXCR4 (Wei, et al. (2002) Antimicrob. Agents Chemother. 46(6):1896-905). The cells contain HIV long terminal repeat (LTR)-driven β-galactosidase and luciferase reporter cassettes that are activated by HIV tat expression.
(§9) TZM cells were seeded at 2×10^4 cells per well in a 96-well microtiter plate and allowed to adhere overnight at 37° C. Varying doses of recombinant human Trappin-2/Elafin (Peprotech, Rocky Hill, N.J.) were incubated with HIV-1 IIIB and BaL at multiplicity of infection (MOI) 1 for 1 hour at 37° C. in a final volume of 100 μl. Following incubation, the media was aspirated from TZM cells and the virus plus Trappin-2/Elafin was added to the cells along with 100 μl of TZM media. Luciferase activity was measured after 48 hours at 37° C. with 5% CO2 in a humidified incubator. Briefly, the supernatants were aspirated, and the cells were lysed with a BETA GLO luciferase assay substrate. Light intensity of each well was measured using a luminometer. Uninfected cells were used to determine background luminescence. All infectivity assays were performed in quadruplicate.
(§10) Other experiments were conducted in order to determine whether the inhibitory effects of Trappin-2/Elafin were at the cell surface level such as the blocking of a co-receptor. For these experiments, varying doses of Trappin-2/Elafin were directly added to TZM cells and incubated for 1 hour at 37° C. prior to washing with 1×PBS and addition of IIIB or BaL viruses. In additional experiments to determine possible post-infection mechanisms of inhibition by Trappin-2/Elafin, TZM cells were infected with HIV-1 IIIB and BaL at MOI 1 and were washed at 6 hours and 24 hours post-infection followed by the addition of 10 ng/ml rTrappin-2/Elafin. Assays were developed at 48 hours by addition of the BETA-GLO substrate and measuring relative light units using a luminometer.
(§11) Since HIV-1 is an important sexually transmitted pathogen, the activity of recombinant Trappin-2/Elaf in (rTrappin-2/Elafin) was evaluated against HIV-1 X4/T-tropic IIIB and R5/M-tropic BaL. HIV-1 IIIB and BaL were incubated with rTrappin-2/Elafin at 0.01, 0.1, 1, and 10 ng/ml for 1 hour at 37° C. TZM-bl indicator cells were plated the previous day at 25,000 cells per well and grown to 70-80% confluence. The virus-Trappin-2/Elafin mixture was added to the TZM cells and incubated for 48 hours at 37° C. At the end of the incubation period, BETA-GLO substrate was added to the cells and viral infection was quantified using a luminometer, expressed as relative light units (RLU). The data was expressed as percent of control with virus-only control set at 100%. […] Therefore, the concentrations of Trappin-2/Elafin showing anti-HIV-1 activity were in the range of physiological levels of this molecule that were secreted by the FRT epithelial cells. Since the inhibitory activity was observed as a result of pre-incubation of HIV-1 and rTrappin-2/Elafin, it is contemplated that the effect of Trappin-2/Elafin on viral infection was direct. […]
(§12) Laboratory-adapted viral strains HIV-1 IIIB (×4) and BaL (R5) were obtained and virus stocks were propagated in PHA-stimulated human PBMC and stored frozen at −80° C. Virus stocks produced in PBMC of molecularly cloned HIV-1 NL4.3 (×4; lab-adapted) and YU-2.c (R5; directly cloned without culture) were obtained. Virus titers were determined on TZM-bl cells as described herein. Also used was a PBMC-derived virus stock of pCH077.c, a recently generated Clade B infectious molecular clone matching the nucleotide sequence determined to be the transmitted/founder virus sequence of CHAVI subject 700010077. […]

Another series concerns HIV-1 X4/T-tropic IIIB. The experiment in a line: TZM-bl infectivity assay, HIV-1 IIIB. In kind it is cell-based. The note with it: for post-infection inhibition, IIIB: 1 ng/ml. How it is done: as §8, §9, §10, §11, §12
A further series concerns TZM cells. Type of series: cell-based, human. How it is done:
Viability of TZM cells upon treatment with Trappin-2/Elafin and CVL was quantified using the […] 96° AQueous One Solution Cell Proliferation Assay (Promega) according to manufacturer's instructions. Briefly, reagent was added directly to cell cultures and incubated for 1 hour at 37° C. followed by reading the plate in a plate reader at OD 490 nm.

Setting [4] is: cells pre-incubated with 0.1 and 1 ng/ml 1 hour, washed.
Setting [5] is: virus pre-incubated 1 hour with 0.01, 0.1, 1, 10 ng/ml, 48 hours.

Poly(I:C): the “CCL20/MIP3α mRNA upregulation” value in series [1] (Poly(I:C) 25 μg/mL, 24 hours, five out of five patients) was “greater than two-fold”. In series [1] (Poly(I:C) 24 hours, ELISA), the “endometrium CCL20/MIP3α secretion” value was “significant increase”. For the same substance, the “CCL20/MIP3α level secreted by endometrium cells” value in series [1] (stimulated with Poly(I:C), constitutive 0.2-7 ng/mL) lay in the range of 5 to 12 ng/mL. The “samples with CCL20/MIP3α mRNA upregulation” value in series [2] (Poly(I:C) 24 hours) was “two out of four samples”. In series [2] (Poly(I:C) 24 hours, ELISA), the “Fallopian tube CCL20/MIP3α secretion” value was “significant increase”. In addition, in series [2] (stimulated with Poly(I:C), constitutive 5-12 ng/mL), the “CCL20/MIP3α level secreted by Fallopian tube cells” value was 13 to 20 ng/mL. Besides, the “Trappin-2/Elafin secretion by UT epithelial cells” value with uterine epithelial cells was “significantly increased”. Moreover, in series [3], the “fraction of patients upregulating Trappin-2/Elafin” value is listed as “approximately ⅓ typically responded”.

As for “rTrappin-2/Elafin: recombinant human Trappin-2/Elafin (Peprotech), serine protease inhibitor (AQEPVKGPVSTKPGSCPIILIRCAMLNPPNRCLKDTDCPGIKKCCEGSCGMACFVPQ; UniProt P19957 61-117, looked up)”, the “post-infection inhibition, BaL” value in the series with HIV-1 R5/M-tropic BaL (added 6 and 24 hours post-infection, 1 ng/ml) is on record as “no significant post-infection inhibition”. Further, the “infectivity of TZM cells by BaL after pre-exposure of the cells” value with HIV-1 R5/M-tropic BaL (setting [4]) is given as “no effect”. Further, in the series with HIV-1 R5/M-tropic BaL (setting [5]), the “inhibition of BaL” value is given as roughly 60%. Also, the “post-infection inhibition, IIIB” value was “no significant post-infection inhibition” in the series with HIV-1 X4/T-tropic IIIB (added 6 hours post-infection) and “slight inhibition” in the series on HIV-1 X4/T-tropic IIIB (added 24 hours post-infection). The “infectivity of TZM cells by IIIB after pre-exposure of the cells” value in the series on HIV-1 X4/T-tropic IIIB (setting [4]) is “no effect”. In the series with HIV-1 X4/T-tropic IIIB (setting [5]), the “inhibition of IIIB” value is recorded as roughly 80%. Besides, in the series on TZM cells, the “toxic effect on the TZM cells (viability)” value is “not due to toxic effect”.
